Test systems include 786-0 renal; OVCAR-8 ovarian; UO-31 renal; HOP-62 NSCLC; LOX IMVI melanoma; HCC-2998 colon; SNB-75 CNS; KM12 colon; EKVX NSCLC; SK-MEL-2 melanoma.
Assay in all cases: growth of human tumour cells (NCI), 48 h

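Cells were grown in 96-well plates and exposed to each compound for 48 hours at five concentrations; endpoints were interpolated linearly between bracketing concentrations, or set to the highest concentration if not reached. GI50 is the concentration that inhibits growth by half. TGI: concentration producing complete growth inhibition.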

As for `COc1cc(/C=C/c2ccc(Br)cc2)cc(OC)c1OC`, the TGI with 786-0 renal was 52.9 µM; with OVCAR-8 ovarian, 98.3 µM; with UO-31 renal it was 80.1 µM; in the test on HOP-62 NSCLC, 49.8 µM; in the test with LOX IMVI melanoma, above 100 µM; with HCC-2998 colon, 28.1 µM. For the same compound, the TGI in the test on SNB-75 CNS is 39.5 µM; with KM12 colon it was 38 µM; in the test with EKVX NSCLC it was above 61.3 µM; in the test on SK-MEL-2 melanoma it was 64.2 µM.
Consider `CCN(CC)CCC(CNc1ccnc2cc(Cl)ccc12)c1ccccc1` (stereo not given), for which the GI50 in the test with 786-0 renal is 3.69 µM; with OVCAR-8 ovarian, 5.05 µM; in the test with UO-31 renal it was 2.72 µM; with HOP-62 NSCLC, 12.1 µM; with LOX IMVI melanoma it was 1.77 µM; with HCC-2998 colon, 2.09 µM. The GI50 was 2.61 µM in the test on SNB-75 CNS, 7.29 µM in the test on KM12 colon, 28.5 µM in the test with EKVX NSCLC and 1.95 µM in the test with SK-MEL-2 melanoma. Besides, the TGI with 786-0 renal stood at 13.5 µM; in the test on OVCAR-8 ovarian, 20.5 µM; in the test with UO-31 renal, 14.3 µM; in the test on HOP-62 NSCLC, 48.9 µM; with LOX IMVI melanoma it was 5.17 µM; in the test on HCC-2998 colon, 6.6 µM. In addition, the TGI was 9.82 µM with SNB-75 CNS, 75.1 µM with KM12 colon, above 100 µM in the test on EKVX NSCLC and 4.06 µM in the test on SK-MEL-2 melanoma.
For the compound `O=c1ccc(=O)n(-c2ccccc2)[nH]1`, the TGI in the test with 786-0 renal, in the test with OVCAR-8 ovarian, in the test on UO-31 renal, with HOP-62 NSCLC, in the test on LOX IMVI melanoma and in the test with HCC-2998 colon was above 100 µM throughout. In addition, the TGI in the test on SNB-75 CNS, with KM12 colon, with EKVX NSCLC and with SK-MEL-2 melanoma was above 100 µM each time.
`O=C(COc1ccc(OCC(=O)N2C(=O)CN(c3ccccc3)C2=S)cc1)N1C(=O)CN(c2ccccc2)C1=S`: the GI50 in the test with 786-0 renal is above 25 µM; with OVCAR-8 ovarian, above 25 µM; in the test on UO-31 renal it was above 25 µM; in the test on HOP-62 NSCLC, above 25 µM; with LOX IMVI melanoma, 29.6 µM; with HCC-2998 colon, above 25 µM. Also, the GI50 in the test on SNB-75 CNS was 33.7 µM; in the test with KM12 colon, above 25 µM; with EKVX NSCLC, above 25 µM; with SK-MEL-2 melanoma it was above 25 µM. Besides, the TGI with 786-0 renal, with OVCAR-8 ovarian, with UO-31 renal, with HOP-62 NSCLC, in the test on LOX IMVI melanoma and in the test with HCC-2998 colon was above 100 µM in each case. For the same compound, the TGI in the test with SNB-75 CNS, with KM12 colon, in the test on EKVX NSCLC and in the test with SK-MEL-2 melanoma was above 100 µM throughout.
On to `COc1ccc(S(=O)(=O)N[C@H](C(=O)O)c2ccccc2)cc1`, for which the TGI in the test with 786-0 renal, in the test on OVCAR-8 ovarian, with UO-31 renal, in the test on HOP-62 NSCLC, with LOX IMVI melanoma and in the test on HCC-2998 colon was above 100 µM each time. Also, the TGI with SNB-75 CNS, in the test with KM12 colon, in the test with EKVX NSCLC and in the test on SK-MEL-2 melanoma was above 100 µM each time.
`CCOC(=O)C(NO)C(Sc1ccccc1)c1ccc(OC)cc1` (stereo not given): the TGI in the test with 786-0 renal, with OVCAR-8 ovarian, with UO-31 renal, in the test on HOP-62 NSCLC, in the test with LOX IMVI melanoma and in the test on HCC-2998 colon was above 100 µM in each case. Further, the TGI with SNB-75 CNS, in the test with KM12 colon, in the test with EKVX NSCLC and in the test with SK-MEL-2 melanoma was above 100 µM in each case.
In the case of `CN1CCN(c2ccc(NC(=O)c3cncnc3Nc3ccc(OCc4cccc(F)c4)c(Cl)c3)cc2)CC1`, the GI50 with 786-0 renal is 0.992 µM; in the test with OVCAR-8 ovarian it was 7.84 µM; with UO-31 renal, 0.893 µM; in the test with HOP-62 NSCLC, 2.53 µM; in the test on LOX IMVI melanoma it was 0.849 µM; with HCC-2998 colon, 1.13 µM. The GI50 in the test on SNB-75 CNS was 5.77 µM; with KM12 colon it was 2.21 µM; in the test on EKVX NSCLC, 10.9 µM; in the test on SK-MEL-2 melanoma, 3 µM. Also, the TGI in the test on 786-0 renal is 2.03 µM; in the test with OVCAR-8 ovarian it was above 50 µM; in the test with UO-31 renal, 1.7 µM; in the test on HOP-62 NSCLC, 16.1 µM; in the test on LOX IMVI melanoma, 1.61 µM; with HCC-2998 colon, 2.7 µM. Besides, the TGI in the test on SNB-75 CNS was 18.8 µM; in the test with KM12 colon it was above 50 µM; in the test on EKVX NSCLC, above 50 µM; in the test on SK-MEL-2 melanoma it was 12.2 µM.
Regarding `COc1cccc(/C=C/c2ccnc3ccccc23)c1OC`, the TGI with 786-0 renal, with OVCAR-8 ovarian, in the test with UO-31 renal, in the test on HOP-62 NSCLC, with LOX IMVI melanoma and in the test with HCC-2998 colon was above 10 µM each time. The TGI in the test on SNB-75 CNS, in the test with KM12 colon, with EKVX NSCLC and in the test with SK-MEL-2 melanoma was above 10 µM each time.
`O=C1c2cccnc2C(=O)c2c1c(C(=O)NCCn1ccnc1)c1ccccn21`: the GI50 with 786-0 renal is 5.47 µM; in the test with OVCAR-8 ovarian, 2.48 µM; in the test on UO-31 renal it was 4.07 µM; in the test on HOP-62 NSCLC, 1.28 µM; in the test with LOX IMVI melanoma it was 1.59 µM; in the test with HCC-2998 colon, 2.23 µM. Moreover, the GI50 in the test on SNB-75 CNS was 3.24 µM; with KM12 colon, 2.96 µM; with EKVX NSCLC it was 4.54 µM; with SK-MEL-2 melanoma, 2.82 µM. Further, the TGI with 786-0 renal came to 37.6 µM; with OVCAR-8 ovarian it was 8.06 µM; in the test on UO-31 renal, 41.6 µM; in the test on HOP-62 NSCLC it was 11.3 µM; with LOX IMVI melanoma, 5.54 µM; in the test on HCC-2998 colon, 9.82 µM. For the same compound, the TGI was found to be 16.8 µM with SNB-75 CNS, 19 µM in the test on KM12 colon, 18.6 µM in the test on EKVX NSCLC and 8.3 µM in the test with SK-MEL-2 melanoma.
With `Cc1ccc(NC(=O)Nc2c(Cl)cccc2Cl)cn1`, the GI50 was 61.2 µM in the test with 786-0 renal; 19.4 µM in the test with OVCAR-8 ovarian; 47 µM in the test with UO-31 renal; 8.33 µM in the test on HOP-62 NSCLC; 21.3 µM in the test with LOX IMVI melanoma; 28 µM with HCC-2998 colon. Moreover, the GI50 in the test on SNB-75 CNS was 5.88 µM; in the test on KM12 colon, 4.37 µM; in the test on EKVX NSCLC, 3.04 µM; in the test on SK-MEL-2 melanoma, 5.87 µM. Further, the TGI in the test on 786-0 renal, with OVCAR-8 ovarian, in the test with UO-31 renal, in the test with HOP-62 NSCLC, in the test on LOX IMVI melanoma and in the test on HCC-2998 colon was above 100 µM throughout. Moreover, the TGI with SNB-75 CNS was above 100 µM; with KM12 colon it was above 100 µM; in the test on EKVX NSCLC, above 100 µM; in the test with SK-MEL-2 melanoma, 27.5 µM.

Source of the values: PubChem BioAssay (NCI).
